Data as given in paper PMC6670175 (Virology Journal, 2019).
Several values for one entry are separate records, joined by “and”; a condition that tells them apart may be missing. Identical values can stand only once. Like-named read-outs stand apart in the source and are kept apart here. Ends that are not written are not given here.

How the values were obtained:
PRV Ea strain = assay type: cell-based, pseudorabies virus
PRV-HNXX = assay type: cell-based, pseudorabies virus; settings: n = 3
[1] = system: PRV-152 (modified Bartha strain); assay type: cell-based, pseudorabies virus; settings: n = 3
PRV-Ea [2] = assay type: cell-based, pseudorabies virus
PRV-Ea [3] = system: PRV-Ea
TGEV WH-1 strain = assay type: cell-based, transmissible gastroenteritis virus; settings: for residual infectivity: n = 3
PRV-Ea [4] = system: PRV-Ea; remark: listed apart in the source
RV TM-a strain = assay type: cell-based, rotavirus; settings: n = 3
PEDV YNKM strain = assay type: cell-based, porcine epidemic diarrhea virus; settings: for residual infectivity: n = 3
PRRSV YA isolate = assay type: cell-based, porcine reproductive and respiratory syndrome virus

Compound | antiviral activity against PRV (in words) (PRV Ea strain) | residual infectivity (PRV Ea strain; n = 3) | 50% toxic concentration (TC50) (PK-15 cells; 48 h) | inhibitory activity against PRV HNXX (in words) (PRV-HNXX) | inhibitory activity against PRV 152 (in words) [1] | inhibitory effect on PRV, post-infection (curative) (PRV-Ea [2]) | inhibitory effect on PRV, pre-infection (prophylactic) (PRV-Ea [2]) | residual infectivity (TGEV WH-1 strain) | inhibition of PRV particles (in words) (PRV-Ea [4]) | decrease in the residual infectivity (PRV Ea strain) | residual infectivity (RV TM-a strain) | residual infectivity (PEDV YNKM strain) | 50% effective concentration (EC50) (PRV-Ea [4]; 1 h) | further results
CC[C@H](C)[C@H](N)C(=O)N[C@@H](CC(C)C)C(=O)N1CCC[C@H]1C(=O)N[C@@H](Cc1c[nH]c2ccccc12)C(=O)N[C@@H](CCCCN)C(=O)N[C@@H](Cc1c[nH]c2ccccc12)C(=O)N1CCC[C@H]1C(=O)N[C@@H](Cc1c[nH]c2ccccc12)C(=O)N[C@@H](Cc1c[nH]c2ccccc12)C(=O)N1CCC[C@H]1C(=O)N[C@@H](Cc1c[nH]c2ccccc12)C(=O)N[C@@H](CCCNC(=N)N)C(=O)N[C@@H](CCCNC(=N)N)C(N)=O [indolicidin] | mild antiviral activity | 34.6% | 110.2 µg/mL | – | – | – | – | – | – | – | – | – | – | –
FFHHIFRGIVHVGKTIHRLVTG [piscidin, piscidin 1] | – | around 2.3% | – | displayed inhibitory activities | displayed inhibitory activities | No inhibitory effect | No inhibitory effect | 41.5% | inhibit most of the PRV particles | more than 30 folds | 7.4% | lower than 50% | – | brain pathology (H&E) (PRV-Ea [3]; mouse, in vivo): no specific symptom; clinical signs, peptide alone (PRV-Ea [3]; mouse, in vivo): remained asymptomatic; clinical symptoms versus PRV infected mice (PRV-Ea [3]; mouse, in vivo): symptoms appeared later and not so severe; outcome after re-challenge (PRV-Ea [3]; mouse, in vivo): all died; protection against PRV infection (in words) (PRV-Ea [3]; mouse, in vivo): obviously protected; survival and behaviour after peptide alone (PRV-Ea [3]; mouse, in vivo): All mice survived and behaved normally; survival rate of mice (PRV-Ea [3]; mouse, in vivo): 90%; survival rates at the end of the experiment (PRV-Ea [3]; mouse, in vivo): 30%; mice with severe neurological symptoms euthanized (PRV-Ea [3]; n = 10): 6 and 5 and 7; 50% effective concentration (EC50) (PRV-Ea [4]; n = 3): 0.23 µg/mL; 50% toxic concentration (TC50) (PK-15 cells): 65.2 µg/mL
FKCRRWQWRMKKLGAPSITCVRRAF [lactoferricin B] | mild antiviral activity | – | – | – | – | – | – | 54.1% | – | – | – | – | – | cytotoxic activity at maximum concentration (PK-15 cells): did not exhibit obvious cytotoxic activity
GLFGVLAKVAAHVVPAIAEHF-NH2 (C-terminus assumed) [maculatin, maculatin 1.1] | – | 10.1% and 10.11% | 76.6 µg/mL | displayed inhibitory activities | displayed inhibitory activities | No inhibitory effect | No inhibitory effect | – | inhibit most of the PRV particles | – | 43.4% | – | 1.09 µg/mL | activity against TGEV (in words) (TGEV WH-1 strain): limited activity; residual infectivity (PRV Ea strain): 0.0017%; activity against PEDV (in words) (PEDV YNKM strain): limited activity; activity against PRRSV (in words) (PRRSV YA isolate): limited activity
GLLSVLGSVAKHVLPHVVPVIAEHL-NH2 (C-terminus assumed) [caerin, caerin 1.1] | – | around 2.3% | 67.8 µg/mL | displayed inhibitory activities | displayed inhibitory activities | No inhibitory effect | No inhibitory effect | – | inhibit most of the PRV particles | more than 30 folds | lower than 50% | 0.2% | 2.63 µg/mL | residual infectivity (PRRSV YA isolate; n = 3): 41.1%
